This note sets out measurements from patent US20210346506A1, “PRODRUG OF ITRACONAZOLE AND USES THEREOF” (priority 2020, published 2021).

Data set [1] is described as follows: Compound stability test in mouse blood. Type of data set: in vitro ADME. The note with it: 37° C., 1 μM; for half-life at 1 μM: male, CD-1, in vitro half-life in mouse blood; for Remaining Percentages (%): mouse blood. As for the experimental part:
(§1) One (1) mM test compound working solution was prepared in DMSO. One (1) mM propantheline working solution was prepared in acetonitrile, wherein propantheline was used as positive control in this assay.
(§2) Ten (10) μL of each test compound solution and the control compound solution were respectively added into a 96 deep well plate, and 40 μL of acetonitrile:water (V/V=1:1) was added to each well to dilute the 1 mM test compound solution to 200 μM working solution.
(§3) Mouse blood (male CD-1 mouse blood, Pharmaron, Lot# PH-ADME-Mouse-20180329) or human blood (Pharmaron, Lot# PH-ADME-Human-20180329) of 398 μL was added to each well of an incubation plate, and then the incubation plate was pre-warmed at 37° C. for 15 minutes. After the pre-incubation, 2 μL of 200 μM working solution prepared above was spiked to the pre-warmed 398 μL blood to reach a final concentration of 1 μM. The final concentration of DMSO was 0.1% and the final concentration of acetonitrile was 0.2%. The assay was performed in duplicate.
(§4) The incubation plate was incubated at 37° C. water bath with shaking at 50 rpm, and aliquots of 50 μL were taken from each well of the incubation plate at 0, 10, 30, 60, 90, 120 and 180 minutes.
(§5) The reaction was stopped by the addition of 50 μL of pure water. The plate was vortexed for 30 seconds at 1,000 rpm and then added with 300 μL of cold acetonitrile containing internal standards (100 nM aprozolam, 200 nM caffeine, 100 nM tolbutamide).
(§6) All samples were vortexed for 10 minutes, followed by centrifugation at 14,000 rpm for 15 minutes to precipitate proteins. 100 μL of each supernatant was transferred to a new plate, and diluted with ultrapure water according to the LC-MS signal response and peak shape.
(§7) Samples were analyzed by LC-MS/MS.
(§8) • LC system: ACQUITY UPLC® I-Class • MS analysis: Waters XEVO® TQ-D with an ESI interface • Column temperature: 40° C. • Injection volume: 3 μL • Column: Waters XSelect HSS T3 C18, 2.5 μm, 2.1×50 mm column • Mobile phase: 0.1% formic acid in water (A) and 0.1% formic acid in acetonitrile (B)
(§9) • Ion source: Turbo spray • Ionization model: ESI • Scan type: MRM • Cone gas: 150 L/h • Desolvation gas: 1000 L/h • Desolvation temperature: 500° C. • Capillary voltage: 3.00 KV
(§10) All calculations were carried out using Microsoft Excel. Peak area ratios were determined from extracted ion chromatograms, and percent compounds remaining at each time point were calculated by the following equation:
(§11) Remaining Percentaget min(%)=Peak Area Ratiot min/Peak Area Ratio0 min×100, where Peak Area Ratiot min referred to peak area ratio of control and test compounds at t min; and Peak Area Ratio0 min referred to peak area ratio of control and test compounds at zero time point. The in vitro half-life (in vitro t1/2) was determined from the slope value: In vitro T1/2=−(0.693/k).

A short description of data set [2]: Compound stability test in human blood. Type of data set: in vitro ADME. The settings on record: 37° C., 1 μM; for Remaining Percentages (%): human blood; for half-life at 1 μM: in vitro half-life in human blood. As for the experimental part:
as §1, §2, §3, §4, §5, §6, §7, §8, §9, §10, §11

In general, half-life refers to the time needed for the level to fall by half in the phase considered.

For `CCC(C)n1ncn(-c2ccc(N3CCN(c4ccc(OCC5COC(Cn6c[n+](C)cn6)(c6ccc(Cl)cc6Cl)O5)cc4)CC3)cc2)c1=O.[Cl-]` (stereo not shown) [Compound 1], the half-life at 1 μM in data set [1] came to 1.77 min; in data set [2] it was 23.1 min. Further, the “Remaining Percentages (%)” value was 100% in data set [1] (0 min); 2.01% in data set [1] (10 min); 0.00% in data set [1] (30 min); 0.00% in data set [1] (60 min); 0.00% in data set [1] (90 min); 0.00% in data set [1] (120 min). For the same compound, the “Remaining Percentages (%)” value in data set [1] (180 min) was 0.00%; in data set [2] (0 min), 100%; in data set [2] (10 min) it was 68.5%; in data set [2] (30 min) it was 32.6%; in data set [2] (60 min), 12.3%; in data set [2] (90 min), 7.80%. In addition, the “Remaining Percentages (%)” value turned out to be 2.02% in data set [2] (120 min) and 0.36% in data set [2] (180 min).
As to `CCC(C)n1ncn(-c2ccc(N3CCN(c4ccc(OCC5COC(Cn6c[n+](CC)cn6)(c6ccc(Cl)cc6Cl)O5)cc4)CC3)cc2)c1=O.[Cl-]` (stereo not shown) [Compound 2], the half-life at 1 μM in data set [1] stood at 11.8 min; in data set [2], 15.6 min. For the same compound, the “Remaining Percentages (%)” value in data set [1] (0 min) was 100%; in data set [1] (10 min), 40.1%; in data set [1] (30 min) it was 16.2%; in data set [1] (60 min), 3.79%; in data set [1] (90 min), 0.90%; in data set [1] (120 min), 0.175%. Besides, the “Remaining Percentages (%)” value is listed as 0.00% in data set [1] (180 min); 100% in data set [2] (0 min); 60.3% in data set [2] (10 min); 26.1% in data set [2] (30 min); 8.47% in data set [2] (60 min); 3.59% in data set [2] (90 min). The “Remaining Percentages (%)” value came to 1.66% in data set [2] (120 min) and 0.30% in data set [2] (180 min).
For the compound `CCC(C)n1ncn(-c2ccc(N3CCN(c4ccc(OCC5COC(Cn6c[n+](COC(=O)C(C)C)cn6)(c6ccc(Cl)cc6Cl)O5)cc4)CC3)cc2)c1=O.[Cl-]` (stereo not shown) [Compound 4], the half-life at 1 μM in data set [1] came to 6.03 min; in data set [2], 17.7 min. Also, the “Remaining Percentages (%)” value in data set [1] (0 min) is 100%; in data set [1] (10 min), 31.5%; in data set [1] (30 min), 4.04%; in data set [1] (60 min), “BLOD”; in data set [1] (90 min), “BLOD”; in data set [1] (120 min), “BLOD”. Besides, the “Remaining Percentages (%)” value in data set [1] (180 min) is reported as “BLOD”; in data set [2] (0 min) it was 100%; in data set [2] (10 min), 61.0%; in data set [2] (30 min) it was 30.2%; in data set [2] (60 min), 8.93%; in data set [2] (90 min) it was 4.67%. The “Remaining Percentages (%)” value in data set [2] (120 min) and in data set [2] (180 min) was “BLOD” in each case.
Regarding `CCC(C)n1ncn(-c2ccc(N3CCN(c4ccc(OCC5COC(Cn6c[n+](COC(=O)C(C)(C)C)cn6)(c6ccc(Cl)cc6Cl)O5)cc4)CC3)cc2)c1=O.[Cl-]` (stereo not shown) [Compound 5], the half-life at 1 μM in data set [1] came out at 4.84 min; in data set [2], 18.1 min. Further, the “Remaining Percentages (%)” value in data set [1] (0 min) is 100%; in data set [1] (10 min), 23.9%; in data set [1] (30 min), 1.48%; in data set [1] (60 min), “BLOD”; in data set [1] (90 min), “BLOD”; in data set [1] (120 min) it was “BLOD”. Also, the “Remaining Percentages (%)” value is recorded as “BLOD” in data set [1] (180 min); 100% in data set [2] (0 min); 69.4% in data set [2] (10 min); 30.4% in data set [2] (30 min); 9.76% in data set [2] (60 min); 5.50% in data set [2] (90 min). Moreover, the “Remaining Percentages (%)” value in data set [2] (120 min) is given as 2.08%; in data set [2] (180 min), “BLOD”.
Consider `CCCOC(=O)OC[n+]1cnn(CC2(c3ccc(Cl)cc3Cl)OCC(COc3ccc(N4CCN(c5ccc(-n6cnn(C(C)CC)c6=O)cc5)CC4)cc3)O2)c1.[Cl-]` (stereo not shown) [Compound 7], for which the half-life at 1 μM in data set [1] amounted to 7.12 min; in data set [2], 5.07 min. The “Remaining Percentages (%)” value is listed as 100% in data set [1] (0 min); 37.3% in data set [1] (10 min); “BLOD” in data set [1] (30 min); “BLOD” in data set [1] (60 min); “BLOD” in data set [1] (90 min); “BLOD” in data set [1] (120 min). Besides, the “Remaining Percentages (%)” value is listed as “BLOD” in data set [1] (180 min); 100% in data set [2] (0 min); 25.3% in data set [2] (10 min); “BLOD” in data set [2] (30 min); “BLOD” in data set [2] (60 min); “BLOD” in data set [2] (90 min). Moreover, the “Remaining Percentages (%)” value in data set [2] (120 min) and in data set [2] (180 min) was “BLOD” in each case.
Turning to `CCC(C)n1ncn(-c2ccc(N3CCN(c4ccc(OCC5COC(Cn6c[n+](COC(=O)OC(C)C)cn6)(c6ccc(Cl)cc6Cl)O5)cc4)CC3)cc2)c1=O.[Cl-]` (stereo not shown) [Compound 8], the half-life at 1 μM in data set [1] turned out to be 21.9 min; in data set [2] it was 6.03 min. Besides, the “Remaining Percentages (%)” value in data set [1] (0 min) is 100%; in data set [1] (10 min), 71.2%; in data set [1] (30 min) it was 40.2%; in data set [1] (60 min), 14.8%; in data set [1] (90 min), 7.0%; in data set [1] (120 min) it was 3.99%. Moreover, the “Remaining Percentages (%)” value in data set [1] (180 min) is 1.03%; in data set [2] (0 min), 100%; in data set [2] (10 min), 31.6%; in data set [2] (30 min) it was 1.40%; in data set [2] (60 min), 0.785%; in data set [2] (90 min) it was 0.616%. The “Remaining Percentages (%)” value in data set [2] (120 min) and in data set [2] (180 min) was “BLOD” throughout.
Regarding `CC(C)[N+](C)(CCOC(=O)C1c2ccccc2Oc2ccccc21)C(C)C` [Propantheline, propantheline, reference compound], the half-life at 1 μM was 38.8 min in data set [1] and 32.8 min in data set [2]. The “Remaining Percentages (%)” value in data set [1] (0 min) came to 100%; in data set [1] (10 min), 88.8%; in data set [1] (30 min), 62.4%; in data set [1] (60 min), 34.8%; in data set [1] (90 min), 20.4%; in data set [1] (120 min) it was 12.3%. For the same compound, the “Remaining Percentages (%)” value in data set [1] (180 min) was found to be 4.44%; in data set [2] (0 min) it was 100%; in data set [2] (10 min), 85.5%; in data set [2] (30 min), 55.8%; in data set [2] (60 min) it was 29.2%; in data set [2] (90 min), 15.2%. In addition, the figures for the “Remaining Percentages (%)” value in data set [2] (120 min) and in data set [2] (180 min) were 6.83% and 1.84%, respectively.
